# Source: patent US20220289679A1, “HETEROCYCLIC COMPOUND” (Takeda Pharmaceutical Company Limited, priority 2019, published 2022)
# Target: T1, human GCS (glucosylceramide synthase) (Homo sapiens, UniProt Q16739)
# T1 construct: made in house; host or cells: Expi293F cells (transient expression; microsome fraction)
# T1 sequence (Q16739 1-394): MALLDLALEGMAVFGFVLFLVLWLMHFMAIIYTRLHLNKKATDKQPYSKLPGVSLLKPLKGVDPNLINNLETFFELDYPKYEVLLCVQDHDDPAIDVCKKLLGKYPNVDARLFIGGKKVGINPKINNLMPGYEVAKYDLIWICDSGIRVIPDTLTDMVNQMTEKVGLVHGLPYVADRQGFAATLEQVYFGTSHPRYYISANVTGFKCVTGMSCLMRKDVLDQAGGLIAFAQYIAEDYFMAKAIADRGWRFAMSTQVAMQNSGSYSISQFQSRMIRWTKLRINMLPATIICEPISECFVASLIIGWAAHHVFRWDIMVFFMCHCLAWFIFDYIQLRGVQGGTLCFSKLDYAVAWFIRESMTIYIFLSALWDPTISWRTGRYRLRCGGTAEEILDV
# Experiment: Glucosylceramide Synthase (GCS) Assay
# Type: biochemical
# Conditions: test compound 10 μM; microsome fraction of Expi293F cells expressing human GCS; 1.7 μM UDP-glucose, 3 μM C8 ceramide; room temperature 60 min; C8 glucosylceramide by Rapidfire MS/MS; read-out: GCS enzyme inhibitory rate at 10 μM (%)
# Outline: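 Enzyme source was a microsome fraction from Expi293F cells transiently expressing human GCS. Reaction ran 60 min at room temperature in 20 mM Tris pH 7.5 with 1.7 μM UDP-glucose (Km) and 3 μM liposomal C8 ceramide, compound at 10 μM final. C8 glucosylceramide quantified by RapidFire MS/MS; inhibition scaled between enzyme-free and DMSO controls.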
row,Compound,inhibition at 10 µM
1,"COc1cc(C(C)(C)O)ccc1NC(=O)c1cc(C)nn(-c2ccccc2OCC(F)F)c1=O [Example 151, 2-[2-(2,2-difluoroethoxy)phenyl]-N-[4-(2-hydroxypropan-2-yl)-2-methoxyphenyl]-6-methyl-3-oxo-2,3-dihydropyridazine-4-carboxamide]",53%
2,"Cc1cc(C(=O)Nc2ccc(C(O)(C(F)F)C(F)F)cc2)c(=O)n(-c2ccccc2OCC(F)F)n1 [Example 152, 2-[2-(2,2-difluoroethoxy)phenyl]-6-methyl-3-oxo-N-[4-(1,1,3,3-tetrafluoro-2-hydroxypropan-2-yl)phenyl]-2,3-dihydropyridazine-4-carboxamide]",100%
3,"O=C(Nc1ccc(C(O)(C(F)F)C(F)F)cc1)c1ccnn(-c2ccccc2OCC(F)F)c1=O [Example 153, 2-[2-(2,2-difluoroethoxy)phenyl]-3-oxo-N-[4-(1,1,3,3-tetrafluoro-2-hydroxypropan-2-yl)phenyl]-2,3-dihydropyridazine-4-carboxamide]",100%
4,"Cc1cc(C(=O)Nc2ccc(C(C)(C)O)cc2C#N)c(=O)n(-c2ccccc2OCC(F)F)n1 [Example 154, N-[2-cyano-4-(2-hydroxypropan-2-yl)phenyl]-2-[2-(2,2-difluoroethoxy)phenyl]-6-methyl-3-oxo-2,3-dihydropyridazine-4-carboxamide]",83%
5,"O=C(Nc1ccc(C(O)(C(F)F)C(F)F)cc1)c1ccnn(-c2ccccc2OCC(F)(F)F)c1=O [Example 155, 3-oxo-N-[4-(1,1,3,3-tetrafluoro-2-hydroxypropan-2-yl)phenyl]-2-[2-(2,2,2-trifluoroethoxy)phenyl]-2,3-dihydropyridazine-4-carboxamide]",100%
6,"Cc1cc(C(=O)Nc2ccc(C(O)(C(F)F)C(F)F)cc2F)c(=O)n(-c2ccccc2OCC(F)F)n1 [Example 156, 2-[2-(2,2-difluoroethoxy)phenyl)-N-[2-fluoro-4-(1,1,3,3-tetrafluoro-2-hydroxypropan-2-yl)phenyl]-6-methyl-3-oxo-2,3-dihydropyridazine-4-carboxamide]",100%
7,"O=C(Nc1ccc(C(O)(C(F)F)C(F)F)cc1F)c1ccnn(-c2ccccc2OCC(F)F)c1=O [Example 157, 2-[2-(2,2-difluoroethoxy)phenyl]-N-[2-fluoro-4-(1,1,3,3-tetrafluoro-2-hydroxypropan-2-yl)phenyl]-3-oxo-2,3-dihydropyridazine-4-carboxamide]",100%
8,"Cn1cc(C(=O)Nc2ccc(C(C)(C)O)cc2)c(=O)c(-c2ccccc2OCC(F)F)n1 [Example 158, 6-[2-(2,2-difluoroethoxy)phenyl]-N-[4-(2-hydroxypropan-2-yl)phenyl]-2-methyl-5-oxo-2,5-dihydropyridazine-4-carboxamide]",100%
9,"Cn1cc(C(=O)Nc2ccc(C(O)(C(F)F)C(F)F)cc2)c(=O)c(-c2ccccc2OCC(F)F)n1 [Example 159, 6-[2-(2,2-difluoroethoxy)phenyl]-2-methyl-5-oxo-N-[4-(1,1,3,3-tetrafluoro-2-hydroxypropan-2-yl)phenyl]-2,5-dihydropyridazine-4-carboxamide]",100%
10,"O=C(Nc1ccc(C(O)(C(F)F)C(F)F)cc1Cl)c1ccnn(-c2ccccc2OCC(F)F)c1=O [Example 160, N-[2-chloro-4-(1,1,3,3-tetrafluoro-2-hydroxypropan-2-yl)phenyl]-2-[2-(2,2-difluoroethoxy)phenyl]-3-oxo-2,3-dihydropyridazine-4-carboxamide]",100%
11,"CC(C)(O)c1ccc(NC(=O)c2cn(C(F)F)nc(-c3ccccc3OCC(F)F)c2=O)cc1 [Example 161, 6-[2-(2,2-difluoroethoxy)phenyl]-2-(difluoromethyl)-N-[4-(2-hydroxypropan-2-yl)phenyl]-5-oxo-2,5-dihydropyridazine-4-carboxamide]",100%
12,"O=C(Nc1ccc(C(O)(C(F)F)C(F)F)nc1)c1ccnn(-c2ccccc2OCC(F)(F)F)c1=O [Example 162, 3-oxo-N-[6-(1,1,3,3-tetrafluoro-2-hydroxypropan-2-yl)pyridin-3-yl]-2-[2-(2,2,2-trifluoroethoxy)phenyl]-2,3-dihydropyridazine-4-carboxamide]",100%
13,"O=C(Nc1ccc(C(O)(C(F)F)C(F)F)cc1)c1cn(C(F)F)nc(-c2ccccc2OCC(F)F)c1=O [Example 163, 6-[2-(2,2-difluoroethoxy)phenyl]-2-(difluoromethyl)-5-oxo-N-[4-(1,1,3,3-tetrafluoro-2-hydroxypropan-2-yl)phenyl]-2,5-dihydropyridazine-4-carboxamide]",100%
14,"Cn1cc(C(=O)Nc2ccc(OCC(C)(C)O)cc2)c(=O)c(-c2ccccc2OCC(F)F)n1 [Example 164, 6-[2-(2,2-difluoroethoxy)phenyl]-N-[4-(2-hydroxy-2-methylpropoxy)phenyl]-2-methyl-5-oxo-2,5-dihydropyridazine-4-carboxamide]",94%
15,"CC(C)(O)COc1ccc(NC(=O)c2cn(C(F)F)nc(-c3ccccc3OCC(F)F)c2=O)cc1 [Example 165, 6-[2-(2,2-difluoroethoxy)phenyl]-2-(difluoromethyl)-N-[4-(2-hydroxy-2-methylpropoxy)phenyl]-5-oxo-2,5-dihydropyridazine-4-carboxamide]",98%
16,"Cn1cc(C(=O)Nc2ccc(C(C)(C)O)cc2)c(=O)c(-c2ccccc2OCC(F)(F)F)n1 [Example 166, N-[4-(2-hydroxypropan-2-yl)phenyl]-2-methyl-5-oxo-6-[2-(2,2,2-trifluoroethoxy)pheny]-2,5-dihydropyridazine-4-carboxamide]",100%
17,"CC(C)(O)Cn1cc(C(=O)Nc2ccc(OCC(F)(F)F)cc2)c(=O)c(-c2ccccc2OCC(F)F)n1 [Example 168, 6-[2-(2,2-difluoroethoxy)phenyl]-2-(2-hydroxy-2-methylpropyl)-5-oxo-N-[4-(2,2,2-trifluoroethoxy)phenyl]-2,5-dihydropyridazine-4-carboxamide]",96%
18,"CC(C)(O)c1ccc(NC(=O)c2cn(C3CC3)nc(-c3ccccc3OCC(F)F)c2=O)cc1 [Example 169, 2-cyclopropyl-6-[2-(2,2-difluoroethoxy)phenyl]-N-[4-(2-hydroxypropan-2-yl)phenyl]-5-oxo-2,5-dihydropyridazine-4-carboxamide]",100%
19,"CCOC(=O)c1ccc(NC(=O)c2cc(C)nn(-c3ccccc3OCC(F)F)c2=O)s1 [Example 170, ethyl 5-({2-[2-(2,2-difluoroethoxy)phenyl]-6-methyl-3-oxo-2,3-dihydropyridazine-4-carbonyl}amino)thiophene-2-carboxylate]",65%
20,"Cn1cc(C(=O)Nc2ccc(C(C)(C)C#N)cc2)c(=O)c(-c2ccccc2OCC(F)F)n1 [Example 172, N-[4-(2-cyanopropan-2-yl)phenyl]-6-[2-(2,2-difluoroethoxy)phenyl]-2-methyl-5-oxo-2,5-dihydropyridazine-4-carboxamide]",100%
21,"CC(C)(O)Cn1cc(C(=O)Nc2ccc(OC(F)F)cc2)c(=O)c(-c2ccccc2OCC(F)F)n1 [Example 173, 6-[2-(2,2-difluoroethoxy)phenyl]-N-[4-(difluoromethoxy)phenyl]-2-(2-hydroxy-2-methylpropyl)-5-oxo-2,5-dihydropyridazine-4-carboxamide]",95%
22,"CC(C)(O)Cn1cc(C(=O)Nc2ccc(C(C)(C)O)cc2)c(=O)c(-c2ccccc2OCC(F)F)n1 [Example 174, 6-[2-(2,2-difluoroethoxy)phenyl]-2-(2-hydroxy-2-methylpropyl)-N-[4-(2-hydroxypropan-2-yl)phenyl]-5-oxo-2,5-dihydropyridazine-4-carboxamide]",91%
23,"O=C(Nc1ccc(C(O)(C(F)F)C(F)F)cc1)c1cn(CC2COC2)nc(-c2ccccc2OCC(F)F)c1=O [Example 175, 6-[2-(2,2-difluoroethoxy)phenyl]-2-[(oxetan-3-yl)methyl]-5-oxo-N-[4-(1,1,3,3-tetrafluoro-2-hydroxypropan-2-yl)phenyl]-2,5-dihydropyridazine-4-carboxamide]",100%
24,"Cn1cc(C(=O)Nc2ccc(C(O)(C(F)F)C(F)F)nc2)c(=O)c(-c2ccccc2OCC(F)F)n1 [Example 176, 6-[2-(2,2-difluoroethoxy)phenyl]-2-methyl-5-oxo-N-[6-(1,1,3,3-tetrafluoro-2-hydroxypropan-2-yl)pyridin-3-yl]-2,5-dihydropyridazine-4-carboxamide]",100%
25,"O=C(Nc1ccc(C(O)(C(F)F)C(F)F)nc1)c1cn(C(F)F)nc(-c2ccccc2OCC(F)F)c1=O [Example 177, 6-[2-(2,2-difluoroethoxy)phenyl]-2-(difluoromethyl)-5-oxo-N-[6-(1,1,3,3-tetrafluoro-2-hydroxypropan-2-yl)pyridin-3-yl]-2,5-dihydropyridazine-4-carboxamide]",100%
26,"CC(C)(O)Cn1cc(C(=O)Nc2ccc(C(O)(C(F)F)C(F)F)nc2)c(=O)c(-c2ccccc2OCC(F)F)n1 [Example 178, 6-[2-(2,2-difluoroethoxy)phenyl]-2-(2-hydroxy-2-methylpropyl)-5-oxo-N-[6-(1,1,3,3-tetrafluoro-2-hydroxypropan-2-yl)pyridin-3-yl]-2,5-dihydropyridazine-4-carboxamide]",97%
